“Also recorded” adds a separate entry of the source.
How the values were obtained:
[1] = GSH adduct formation (GSH trapping) assay; assay type: in vitro ADME
Description: We then tested PHB4082 in a GSH adduct formation assay and the Ames test.

[2] = Plasma stability, rat (Table 1); assay type: in vitro ADME
HT-1080 cells = experiment: Rescue activity of selected Fer-1 analogs, dose-response in HT-1080 cells (cell titer glo); assay type: cell-based
Procedure: Selected Fer-1 analogs containing a pyridine moiety (FIG. 4) were tested to examine their efficacy and overall potency in inhibiting ferroptosis. For each of these compounds, dose-response curves were generated in HT-1080 cells looking at the effectiveness of the molecules in inhibiting ferroptosis induced by either 3 μM IKE or 0.2 μM RSL3, Fer-1 was used as a positive control. For each dose-response curve, 1,000 cells/well were seeded in a 384 well plate and allowed to adhere overnight prior to treating with compound from a daughter plate. Cells were treated for 48 hours, unless otherwise noted, prior to viability being analyzed using cell titer glo (40 μL per well). All liquid handling was performed using the BioMek. All samples were prepared in triplicate, unless otherwise noted.

[3] = Microsomal stability, mouse liver microsomes (Table 1); assay type: in vitro ADME, Mouse: CD1; settings: CD1, mouse, liver microsomes, Mouse: CD1; read-out: Microsomal Stability t1/2
Procedure: Each compound (1 μM) is incubated with mouse plasma, for 4 hours at 37° C., with shaking at 100 rpm. The concentration of compound in the buffer and plasma chambers is determined using LC-MS/MS. Metabolism of each compound is predicted using Sites of Metabolism (Schrodinger Suite), which combines intrinsic reactivity analysis (Hammett-Taft) with induced fit docking against 2C9, 2D6 and 3A4. This approach identifies 90% of known metabolism sites and has a false positive rate of 17%. The in vitro metabolic stability of each compound in mouse liver microsomes is determined. Pooled mouse liver microsomes are prepared and stored at −80° C. until needed. […]

Row | SMILES | GSH adduct formation / trapping result [1] | Plasma Stability at six hours (% remaining) [2] | death observed with RSL3 (HT-1080 cells; 0.2 μM RSL3, inhibitor range 10 μM-0 μM) | rescue against IKE and erastin (HT-1080 cells; inhibitor 1 μM-0 μM, 3 μM IKE, 10 μM erastin, 48 hours) | half-life [3]
1 | Cc1noc(-c2ccc(NC3CCCCC3)c(NC3CCCCC3)c2)n1 [PHB4082, N1,N2-dicyclohexyl-4-(3-methyl-1,2,4-oxadiazol-5-yl)benzene-1,2-diamine] | positive in a GSH trapping assay; also recorded: positive in the GSH adduct formation assay |  |  |  | 
2 | CCOC(=O)c1ccc(NC2CCCCC2)c(N)c1 [Fer-1, Ferrostatin-1, reference compound] |  | 0-4% | No death was observed | ~50% | 2.4 min

From US20240156790A1, “COMPOUNDS, COMPOSITIONS, AND METHODS FOR MODULATING FERROPTOSIS AND TREATING EXCITOTOXIC DISORDERS” (THE TRUSTEES OF COLUMBIA UNIVERSITY IN THE CITY OF NEW YORK, priority 2018, published 2024)
